# Measurements reported in ChEMBL document CHEMBL4011587, “Design, synthesis and evaluation of novel ferulic acid-O-alkylamine derivatives as potential multifunctional agents for the treatment of Alzheimer's disease” (Eur J Med Chem, 2017).
# Activity calls are given as the source filed them. The rule behind the calls is not given here.
# Experiments:
# [1] = molecular target: Cholinesterase (Equus caballus, UniProt P81908); assay: Inhibition of equine serum BuChE using butyrylthiocholine chloride as substrate measured after 15 mins by Ellman's method
# [2] = molecular target: Acetylcholinesterase (Electrophorus electricus, UniProt O42275); assay: Inhibition of electric eel AChE using acetylthiocholine chloride as substrate measured after 15 mins by Ellman's method; assay type: ADME
# [3] = molecular target: Amyloid-beta precursor protein (Homo sapiens) (UniProt P05067); assay: Inhibition of amyloid beta (1 to 42) (unknown origin) self-aggregation at 25 uM after 24 hrs by thioflavin-T fluorescence assay relative to control
# [4] = Antioxidant activity assessed as inhibition of AAPH-induced peroxyl radical generation measured as trolox equivalent at 1 to 10 uM preincubated for 15 mins followed by AAPH addition measured every minute for 90 mins by ORAC-FL assay; assay type: functional
# [5] = Inhibition of BuChE in rat serum using butyrylthiocholine chloride as substrate measured after 15 mins by Ellman's method; conditions: 0.25 h
# [6] = Selectivity index, ratio of IC50 for electric eel AChE to IC50 for equine serum BuChE
# [7] = molecular target: T1, Acetylcholinesterase (Rattus norvegicus, UniProt P37136); assay: Inhibition of AChE in rat cortex homogenates at 25 umol/l using acetylthiocholine chloride as substrate measured after 15 mins by Ellman's method; conditions: 0.25 h
# T1 sequence (P37136 whole entry): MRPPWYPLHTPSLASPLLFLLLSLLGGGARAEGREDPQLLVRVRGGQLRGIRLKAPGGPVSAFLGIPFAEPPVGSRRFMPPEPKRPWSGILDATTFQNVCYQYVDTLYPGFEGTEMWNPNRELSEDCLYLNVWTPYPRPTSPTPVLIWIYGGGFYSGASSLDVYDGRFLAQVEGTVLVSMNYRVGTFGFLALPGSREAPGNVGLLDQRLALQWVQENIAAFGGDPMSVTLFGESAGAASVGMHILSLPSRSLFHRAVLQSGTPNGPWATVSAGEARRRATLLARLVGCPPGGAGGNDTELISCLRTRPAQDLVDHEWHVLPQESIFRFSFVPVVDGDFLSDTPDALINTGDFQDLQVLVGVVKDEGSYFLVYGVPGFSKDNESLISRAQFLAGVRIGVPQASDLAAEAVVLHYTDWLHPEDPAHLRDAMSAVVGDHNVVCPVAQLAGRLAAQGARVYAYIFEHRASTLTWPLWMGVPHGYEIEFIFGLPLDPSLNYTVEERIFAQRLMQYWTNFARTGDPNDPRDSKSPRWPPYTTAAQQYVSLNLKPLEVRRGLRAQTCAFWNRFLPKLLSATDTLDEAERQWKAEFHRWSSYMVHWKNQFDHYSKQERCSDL
# [8] = molecular target: T1, Acetylcholinesterase; assay: Inhibition of AChE in rat cortex homogenates using acetylthiocholine chloride as substrate measured after 15 mins by Ellman's method; assay type: ADME
# [9] = molecular target: Acetylcholinesterase (Homo sapiens, UniProt P22303); assay: Inhibition of AChE in human erythrocytes using acetylthiocholine chloride as substrate measured after 15 mins by Ellman's method; assay type: cell-based
# [10] = test system: PC-12; assay: Protection against H2O2-induced oxidative injury in rat PC12 cells assessed as cell viability at 1 uM pretreated for 2 hrs followed by H2O2 challenge for 30 mins measured after 24 hrs by MTT assay (reference value: 50.7%); assay type: functional; conditions: read-out: Activity
# [11] = Permeability of the compound in PBS/EtOH at 100 ug/ml after 18 hrs by PAMPA-BBB assay
# [12] = test system: Mus musculus; assay: Acute toxicity in Kunming mouse up to 1000 mg/kg, po measured after 4 hrs up to 14 days; assay type: organism-based; conditions: in vivo
# [13] = molecular target: Amyloid-beta precursor protein (Homo sapiens) (UniProt P05067); assay: Disaggregation of amyloid beta (1 to 42) (unknown origin) self aggregation at 25 uM after 24 hrs by transmission electron microscopic method
# [14] = molecular target: Amyloid-beta precursor protein (Homo sapiens) (UniProt P05067); assay: Disaggregation of amyloid beta (1 to 42) (unknown origin) self aggregation at 25 uM after 24 hrs by thioflavin-T assay relative to control
# [15] = molecular target: Amyloid-beta precursor protein (Homo sapiens) (UniProt P05067); assay: Inhibition of amyloid beta (1 to 42) (unknown origin) self-aggregation at 50 uM after 24 hrs by thioflavin-T fluorescence assay relative to control
# [16] = test system: Mus musculus; assay: Acute toxicity in Kunming mouse assessed as heart damage up to 1000 mg/kg, po measured after 14 days by macroscopic method; assay type: organism-based; conditions: in vivo, 336 h
# [17] = test system: PC-12; assay: Protection against H2O2-induced oxidative injury in rat PC12 cells assessed as cell viability at 10 uM pretreated for 2 hrs followed by H2O2 challenge for 30 mins measured after 24 hrs by MTT assay (reference value: 50.7%); assay type: functional; conditions: read-out: Activity
# [18] = Selectivity ratio of IC50 for AChE in human erythrocytes to IC50 for electric eel AChE; assay type: ADME, cell-based
# [19] = test system: PC-12; assay: Cytotoxicity against rat PC12 cells assessed as cell viability up to 10 uM after 48 hrs by MTT assay; assay type: cell-based; conditions: pc-12, 48 h
# [20] = molecular target: Amyloid-beta precursor protein (Homo sapiens) (UniProt P05067); assay: Inhibition of amyloid beta (1 to 42) (unknown origin) self-aggregation at 12.5 uM after 24 hrs by thioflavin-T fluorescence assay relative to control
# [21] = test system: Mus musculus; assay: Acute toxicity in Kunming mouse assessed as effect on fur sleekness up to 1000 mg/kg, po measured after 4 hrs up to 14 days; assay type: organism-based; conditions: in vivo
# [22] = Selectivity index, ratio of IC50 for AChE in human erythrocytes to IC50 for BuChE in human serum
# [23] = test system: Mus musculus; assay: Acute toxicity in Kunming mouse assessed as kidney damage up to 1000 mg/kg, po measured after 14 days by macroscopic method; assay type: organism-based; conditions: in vivo, 336 h
# [24] = Cytotoxicity against rat PC12 cells assessed as cell viability at 100 uM after 48 hrs by MTT assay relative to control; assay type: cell-based, PC-12; conditions: read-out: Activity
# [25] = molecular target: Amyloid-beta precursor protein (Homo sapiens) (UniProt P05067); assay: Inhibition of amyloid beta (1 to 42) (unknown origin) self-aggregation after 24 hrs by thioflavin-T fluorescence assay
# [26] = test system: Mus musculus; assay: Reversal of scopolamine-induced memory deficit in Kunming mouse assessed as increase in step down latency time administered orally treated for 1 hr before training followed by scopolamine challenge 30 mins before training measured 24 hrs after training trial by passive avoidance test; assay type: functional
# [27] = molecular target: Cholinesterase (Homo sapiens, UniProt P06276); assay: Inhibition of BuChE in human serum using butyrylthiocholine chloride as substrate measured after 15 mins by Ellman's method
# [28] = molecular target: Amyloid-beta precursor protein (Homo sapiens) (UniProt P05067); assay: Inhibition of amyloid beta (1 to 42) (unknown origin) fibril formation at 25 uM after 24 hrs by transmission electron microscopic method
# [29] = test system: Mus musculus; assay: Acute toxicity in Kunming mouse assessed as effect on food consumption up to 1000 mg/kg, po measured after 4 hrs up to 14 days; assay type: organism-based; conditions: in vivo
# [30] = test system: PC-12; assay: Protection against H2O2-induced oxidative injury in rat PC12 cells assessed as increase in cell viability pretreated for 2 hrs followed by H2O2 challenge for 30 mins measured after 24 hrs by MTT assay; assay type: functional, cell-based
# [31] = test system: Mus musculus; assay: Reversal of scopolamine-induced memory deficit in Kunming mouse assessed as step down latency time at 21.3 mg/kg, po treated for 1 hr before training followed by scopolamine challenge 30 mins before training measured 24 hrs after training trial by passive avoidance test (reference value: 50.5 sec); assay type: functional
# [32] = test system: Mus musculus; assay: Acute toxicity in Kunming mouse assessed as effect on water consumption up to 1000 mg/kg, po measured after 4 hrs up to 14 days; assay type: organism-based; conditions: in vivo
# [33] = test system: Mus musculus; assay: Acute toxicity in Kunming mouse assessed as liver damage up to 1000 mg/kg, po measured after 14 days by macroscopic method; assay type: organism-based; conditions: in vivo, 336 h
# [34] = test system: Mus musculus; assay: Acute toxicity in Kunming mouse assessed as change in body weight up to 1000 mg/kg, po measured after 4 hrs up to 14 days; assay type: organism-based; conditions: in vivo
# Chain of Cholinesterase (Equus caballus, UniProt P81908) (P81908 whole entry): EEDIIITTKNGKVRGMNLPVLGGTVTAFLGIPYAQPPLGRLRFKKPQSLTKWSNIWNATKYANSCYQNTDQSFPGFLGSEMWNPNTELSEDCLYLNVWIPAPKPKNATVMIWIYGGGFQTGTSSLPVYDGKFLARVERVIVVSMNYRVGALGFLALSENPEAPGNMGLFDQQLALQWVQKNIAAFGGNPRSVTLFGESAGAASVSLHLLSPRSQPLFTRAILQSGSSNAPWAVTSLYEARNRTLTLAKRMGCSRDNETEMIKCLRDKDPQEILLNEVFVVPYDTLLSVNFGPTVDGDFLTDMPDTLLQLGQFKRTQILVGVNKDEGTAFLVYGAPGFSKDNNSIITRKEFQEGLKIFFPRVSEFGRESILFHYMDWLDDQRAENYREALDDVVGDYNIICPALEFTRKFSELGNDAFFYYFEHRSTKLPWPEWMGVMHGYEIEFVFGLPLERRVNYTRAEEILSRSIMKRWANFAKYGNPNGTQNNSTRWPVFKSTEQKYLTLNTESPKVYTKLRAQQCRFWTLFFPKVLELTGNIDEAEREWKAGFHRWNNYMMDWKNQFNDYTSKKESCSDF
# Chain of Amyloid-beta precursor protein (Homo sapiens) (P05067 whole entry): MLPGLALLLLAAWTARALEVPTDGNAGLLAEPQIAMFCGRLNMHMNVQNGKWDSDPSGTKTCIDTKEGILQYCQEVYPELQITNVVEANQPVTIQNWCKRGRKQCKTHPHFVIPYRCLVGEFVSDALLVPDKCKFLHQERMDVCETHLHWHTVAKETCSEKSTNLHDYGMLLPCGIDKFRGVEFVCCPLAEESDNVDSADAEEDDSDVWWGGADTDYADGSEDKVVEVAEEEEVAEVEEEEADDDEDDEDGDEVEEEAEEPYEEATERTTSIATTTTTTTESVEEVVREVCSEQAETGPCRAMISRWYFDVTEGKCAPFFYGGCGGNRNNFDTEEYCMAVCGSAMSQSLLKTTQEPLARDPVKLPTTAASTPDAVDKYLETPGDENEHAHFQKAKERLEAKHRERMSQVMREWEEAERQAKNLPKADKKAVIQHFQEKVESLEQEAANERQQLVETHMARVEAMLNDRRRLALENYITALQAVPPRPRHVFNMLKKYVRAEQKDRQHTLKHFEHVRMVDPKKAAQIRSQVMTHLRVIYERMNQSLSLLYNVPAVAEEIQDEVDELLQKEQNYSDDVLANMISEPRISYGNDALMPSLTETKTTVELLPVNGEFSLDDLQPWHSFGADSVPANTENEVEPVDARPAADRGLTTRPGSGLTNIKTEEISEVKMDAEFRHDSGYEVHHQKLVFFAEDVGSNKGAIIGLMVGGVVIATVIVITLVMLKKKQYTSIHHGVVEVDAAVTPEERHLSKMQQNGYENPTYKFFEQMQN
# Chain of Acetylcholinesterase (Electrophorus electricus, UniProt O42275) (O42275 whole entry): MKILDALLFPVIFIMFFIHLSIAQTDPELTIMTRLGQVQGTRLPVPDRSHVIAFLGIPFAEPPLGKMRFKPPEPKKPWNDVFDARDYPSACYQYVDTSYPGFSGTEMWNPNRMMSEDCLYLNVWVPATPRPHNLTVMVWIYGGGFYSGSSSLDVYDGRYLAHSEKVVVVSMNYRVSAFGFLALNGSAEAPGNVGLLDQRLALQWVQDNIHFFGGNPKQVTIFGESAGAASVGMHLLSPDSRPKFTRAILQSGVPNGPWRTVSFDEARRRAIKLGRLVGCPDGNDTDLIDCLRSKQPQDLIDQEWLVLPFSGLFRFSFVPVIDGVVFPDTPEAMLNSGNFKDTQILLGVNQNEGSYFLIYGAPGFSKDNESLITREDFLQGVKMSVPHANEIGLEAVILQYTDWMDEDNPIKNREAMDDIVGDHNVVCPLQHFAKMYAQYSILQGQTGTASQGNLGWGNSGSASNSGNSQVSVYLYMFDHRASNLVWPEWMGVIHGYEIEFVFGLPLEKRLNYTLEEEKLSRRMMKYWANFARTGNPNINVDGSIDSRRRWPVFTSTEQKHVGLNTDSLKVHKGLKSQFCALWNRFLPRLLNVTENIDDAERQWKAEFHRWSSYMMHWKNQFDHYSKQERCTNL
# Chain of Cholinesterase (Homo sapiens, UniProt P06276) (P06276 whole entry): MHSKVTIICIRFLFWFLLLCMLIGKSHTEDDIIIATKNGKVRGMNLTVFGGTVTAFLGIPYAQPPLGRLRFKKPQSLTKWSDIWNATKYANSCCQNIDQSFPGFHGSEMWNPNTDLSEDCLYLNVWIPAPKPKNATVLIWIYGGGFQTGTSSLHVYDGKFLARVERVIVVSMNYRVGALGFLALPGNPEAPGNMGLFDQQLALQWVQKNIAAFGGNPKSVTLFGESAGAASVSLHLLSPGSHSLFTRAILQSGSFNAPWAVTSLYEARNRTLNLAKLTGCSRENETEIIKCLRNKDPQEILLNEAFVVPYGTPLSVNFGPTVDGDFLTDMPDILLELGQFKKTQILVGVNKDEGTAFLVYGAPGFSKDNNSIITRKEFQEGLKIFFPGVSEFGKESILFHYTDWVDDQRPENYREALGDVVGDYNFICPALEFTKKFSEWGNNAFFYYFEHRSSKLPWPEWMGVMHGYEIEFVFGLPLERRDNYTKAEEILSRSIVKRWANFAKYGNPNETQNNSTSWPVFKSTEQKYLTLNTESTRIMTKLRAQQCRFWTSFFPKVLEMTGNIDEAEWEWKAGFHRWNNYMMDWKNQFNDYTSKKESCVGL
# Chain of Acetylcholinesterase (Homo sapiens, UniProt P22303) (P22303 whole entry): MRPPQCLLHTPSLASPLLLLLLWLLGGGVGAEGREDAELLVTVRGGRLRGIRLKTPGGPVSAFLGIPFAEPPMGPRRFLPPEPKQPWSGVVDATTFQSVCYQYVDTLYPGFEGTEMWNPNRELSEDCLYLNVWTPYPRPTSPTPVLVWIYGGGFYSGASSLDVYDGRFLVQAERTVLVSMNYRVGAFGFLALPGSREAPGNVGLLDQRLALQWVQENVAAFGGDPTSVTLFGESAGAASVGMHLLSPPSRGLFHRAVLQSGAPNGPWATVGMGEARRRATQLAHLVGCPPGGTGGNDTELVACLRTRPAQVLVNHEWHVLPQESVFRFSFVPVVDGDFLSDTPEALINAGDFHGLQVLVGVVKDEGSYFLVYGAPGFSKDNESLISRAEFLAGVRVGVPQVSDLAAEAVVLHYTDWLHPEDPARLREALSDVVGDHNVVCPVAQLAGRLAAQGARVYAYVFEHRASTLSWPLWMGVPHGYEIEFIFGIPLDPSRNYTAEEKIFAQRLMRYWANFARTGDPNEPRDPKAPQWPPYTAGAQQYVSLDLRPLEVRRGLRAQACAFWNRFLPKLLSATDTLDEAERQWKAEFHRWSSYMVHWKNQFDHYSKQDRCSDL
structure (smiles),measurement,setting,value
COc1cc(/C=C/C(=O)N2CCC(Cc3ccccc3)CC2)ccc1OCCCCCCN1CCN(c2ccccn2)CC1,IC50,[1],0.95 µM
same,IC50,[2],15.6 µM
same,inhibition,[3],49.9%
same,Activity,[4],0.38 equiv
same,IC50,[5],6.9 µM
same,Ratio IC50,[6],16.4
same,inhibition at 25 µM,[7],18.5%
COc1cc(/C=C/C(=O)N2CCC(Cc3ccccc3)CC2)ccc1OCCCN1CCN(c2ncccn2)CC1,IC50,[1],5.12 µM
same,IC50,[2],12.6 µM
same,IC50,[8],93.5 µM
same,inhibition,[3],46.9%
same,Activity,[4],0.41 equiv
same,IC50,[5],45.4 µM
same,Ratio IC50,[6],2.5
COc1cc(/C=C/C(=O)N2CCC(Cc3ccccc3)CC2)ccc1OCCCCCN1CCN(c2ncccn2)CC1,IC50,[1],2.34 µM
same,IC50,[2],5.81 µM
same,IC50,[8],30.6 µM
same,inhibition,[3],39.7%
same,Activity,[4],0.46 equiv
same,IC50,[5],45.3 µM
same,Ratio IC50,[6],2.5
COc1cc(/C=C/C(=O)N2CCC(Cc3ccccc3)CC2)ccc1OCCCCN1CCN(Cc2ccccc2)CC1,IC50,[1],0.39 µM
same,IC50,[2],2.53 µM
same,IC50,[8],56 µM
same,inhibition,[3],54.6%
same,Activity,[4],0.67 equiv
same,IC50,[5],41.3 µM
same,Ratio IC50,[6],6.5
COc1cc(/C=C/C(=O)N2CCC(Cc3ccccc3)CC2)ccc1OCCCN1CCN(c2ccccn2)CC1,IC50,[1],0.86 µM
same,IC50,[2],10.4 µM
same,IC50,[8],75.3 µM
same,inhibition,[3],36.3%
same,Activity,[4],0.47 equiv
same,IC50,[5],62.1 µM
same,Ratio IC50,[6],12.1
COc1cc(/C=C/C(=O)N2CCC(Cc3ccccc3)CC2)ccc1OCCCCN1CCN(c2ncccn2)CC1,IC50,[1],1.56 µM
same,IC50,[2],12.4 µM
same,IC50,[8],44.3 µM
same,inhibition,[3],46%
same,Activity,[4],0.43 equiv
same,IC50,[5],56.2 µM
same,Ratio IC50,[6],7.9
COc1cc(/C=C/C(=O)N2CCC(Cc3ccccc3)CC2)ccc1OCCCCN1CCc2ccccc2C1,IC50,[9],3.82 µM
same,viability at 1 µM,[10],58.6%
same,"Papp at 18 h, 100 ug/ml",[11],18.4 ×10⁻⁶ cm/s
same,IC50,[1],0.021 µM
same,Activity,[12],Non-Toxic
same,Activity,[13],Active
same,IC50,[2],2.13 µM
same,Activity,[14],38.7%
same,inhibition,[15],68.7%
same,IC50,[8],1.8 µM
same,Activity,[16],Non-Toxic
same,viability at 10 µM,[17],76.7%
same,Ratio IC50,[18],2 to 4
same,inhibition,[3],50.8%
same,Activity,[19],Non-Toxic
same,Activity,[4],0.55 equiv
same,inhibition,[20],31.2%
same,IC50,[5],8.63 µM
same,Ratio IC50,[6],101
same,Activity,[21],Non-Toxic
same,Ratio IC50,[22],54.6
same,Activity,[23],Non-Toxic
same,"viability at 48 h, 100 µM",[24],85.8%
same,inhibition,[25],Dose-dependent effect
same,Activity,[26],Dose-dependent effect
same,IC50,[27],0.07 µM
same,inhibition,[28],Active
same,Activity,[29],Non-Toxic
same,Activity,[30],Dose-dependent effect
same,Time,[31],182.8 s
same,Activity,[32],Non-Toxic
same,Activity,[33],Non-Toxic
same,Activity,[34],Non-Toxic
COc1cc(/C=C/C(=O)N2CCC(Cc3ccccc3)CC2)ccc1OCCCCCN1CCN(c2ccccn2)CC1,IC50,[1],1.52 µM
same,IC50,[2],9.12 µM
same,IC50,[8],58.5 µM
same,inhibition,[3],51.5%
same,Activity,[4],0.45 equiv
same,IC50,[5],57.3 µM
same,Ratio IC50,[6],6
COc1cc(/C=C/C(=O)N2CCC(Cc3ccccc3)CC2)ccc1OCCCCCCN1CCN(c2ncccn2)CC1,IC50,[1],0.68 µM
same,IC50,[2],13.4 µM
same,inhibition,[3],42%
same,Activity,[4],0.51 equiv
same,IC50,[5],68.6 µM
same,Ratio IC50,[6],19.7
same,inhibition at 25 µM,[7],15.2%
